Measurements as given in US8148373B2, “Compounds” (AstraZeneca AB, priority 2008, dated 2012).

Tests used:
[1] = target: T1, Adrenergic β2 (H292 cells) (Homo sapiens, UniProt P07550); assay: Adrenergic β2 Mediated cAMP Production, single concentration 1 μM; type: cell-based; conditions: percentage of the maximum response generated by 1E-07M formoterol; for activation at 1 µM: NCI-H292, 1 μM compound, read-out: β2 (% effect at 1 μM); for β2 (% effect at 1 μM): 1 μM compound
T1 construct: endogenous in cells; host or cells: H292 cells
Procedure: The following experimental procedure was used to measure the beta-2% effect at 1 μM for the compounds of Examples 116-263. Adrenergic β2 Mediated cAMP Production Cell Preparation
H292 cells are grown in 225 cm2 flasks incubator at 37° C., 5% CO2 in RPMI medium containing 10% (v/v) FBS (foetal bovine serum) and 2 mM L-glutamine.
Compounds were prepared by an initial first dilution into DMSO to give 1 mM stock concentration. This was followed by a 1 in 10 dilution of the stock concentration (10 μl stock compound+90 μl DMSO) to give 0.1 mM compound.
A compound addition plate was prepared by making a further 1 in 25 dilution in assay buffer (HBSS solution containing 10 mM HEPES pH7.4 and 5 mM glucose) containing 4% dimethylsulfoxide. The final compound concentration in assay is 1 μM.
Adherent H292 cells are removed from tissue culture flasks by treatment with Accutase™ cell detachment solution for 15 minutes. Flasks are incubated for 15 minutes in a humidified incubator at 37° C., 5% CO2. Detached cells are re-suspended in RPMI media (containing 10% (v/v) FBS and 2 mM L-glutamine) at 0.1×10^6 cells per mL. 10000 cells in 100 μL are added to each well of a tissue-culture-treated 96-well plate and the cells incubated overnight in a humidified incubator at 37° C., 5% CO2. The culture media is removed and cells are washed twice with 100 μL assay buffer and replaced with 50 μL assay buffer (HBSS solution containing 10 mM HEPES pH7.4 and 5 mM glucose). Cells are rested at room temperature for 20 minutes after which time 25 μL of rolipram (1.2 mM made up in assay buffer) is added. Cells are incubated with rolipram for 10 minutes after which time 25 μl test compounds are added and the cells are incubated for 60 minutes at room temperature. The final rolipram concentration in the assay is 300 μM and final vehicle concentration is 1% (v/v) dimethylsulphoxide. The reaction is stopped by removing supernatants, washing once with 100 μL assay buffer and replacing with 50 μL lysis buffer. The cell monolayer is frozen at −80° C. for 30 minutes (or overnight).
AlphaScreen™ cAMP Detection
The concentration of cAMP (cyclic adenosine monophosphate) in the cell lysate is determined using AlphaScreen™ methodology. The frozen cell plate is thawed for 20 minutes on a plate shaker then 10 μL of the cell lysate is transferred to a 96-well white plate. 40 μL of mixed AlphaScreen™ detection beads (containing equal volumes of donor beads (pre-incubated with biotinylated cAMP in the dark for 30 minutes) and acceptor beads is added to each well and the plate incubated at room temperature for 3 hours in the dark. The AlphaScreen™ signal is measured using an EnVision spectrophotometer (Perkin-Elmer Inc.) with the recommended manufacturer's settings. Concentration of cAMP produced per well were calculated with reference to the cAMP standard curve determined in the same experiment and expressed as a percentage of the maximum response generated by 1E-07M formoterol.

[2] = target: T2, human muscarinic acetylcholine M3 receptor (M3-ACh) (Homo sapiens, UniProt P20309); assay: Muscarinic 3 Receptor Binding Assay, % inhibition specific binding at 1 μM; conditions: 1 μM compound, % inhibition specific [3H]-NMS binding
T2 construct: expressed in transfected cells; host or cells: CHO-K1 (Chinese Hamster Ovary) cell membranes
Procedure: The following experimental procedure was used to determine the M3% inhibition at 1 μM of the compounds of Examples 116-263.
Muscarinic 3 Receptor Binding Assay
The activity (% inhibition specific binding) of compounds -on the M3 receptor is determined by competition binding of [^3H]N-methyl scopolamine (NMS) to CHO-K1 (Chinese Hamster Ovary) cell membranes expressing the human muscarinic acetylcholine M3 receptor (M3-ACh) in a scintillation proximity assay (SPA) format.
SPA beads are precoated with membranes and then incubated at 2 mg of beads per well with 1 μM compound of the invention, [^3H]NMS at 0.1 nM, quarter Kd (experimentally determined dissociation constant) and assay buffer (20 mM HEPES pH 7.4 containing 5 mM MgCl2). The assay is conducted in a final volume of 200 μL, in the presence of 1% (v/v) dimethyl sulphoxide (DMSO). Total binding of [^3H]NMS is determined in the absence of competing compound and non-specific binding of [^3H]NMS is determined in the presence of 1 μM atropine. The plates are incubated for 16 hours at room temperature and then read on Wallac Microbeta™ using a normalised ^3H protocol. The compound activity at 1 defined as % inhibition specific [^3H]-NMS binding, is determined.

T1 sequence (P07550 whole entry): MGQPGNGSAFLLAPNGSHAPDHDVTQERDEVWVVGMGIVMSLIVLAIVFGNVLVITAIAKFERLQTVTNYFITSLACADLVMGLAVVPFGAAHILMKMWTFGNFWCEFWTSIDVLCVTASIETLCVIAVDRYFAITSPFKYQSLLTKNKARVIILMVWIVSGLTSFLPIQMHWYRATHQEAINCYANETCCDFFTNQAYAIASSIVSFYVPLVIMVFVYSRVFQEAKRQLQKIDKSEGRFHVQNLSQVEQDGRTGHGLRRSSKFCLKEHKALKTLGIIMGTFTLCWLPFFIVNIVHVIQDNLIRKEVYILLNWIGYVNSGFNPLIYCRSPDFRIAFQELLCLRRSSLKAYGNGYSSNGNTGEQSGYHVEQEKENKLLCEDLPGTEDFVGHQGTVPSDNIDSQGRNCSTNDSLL
T2 sequence (P20309 whole entry): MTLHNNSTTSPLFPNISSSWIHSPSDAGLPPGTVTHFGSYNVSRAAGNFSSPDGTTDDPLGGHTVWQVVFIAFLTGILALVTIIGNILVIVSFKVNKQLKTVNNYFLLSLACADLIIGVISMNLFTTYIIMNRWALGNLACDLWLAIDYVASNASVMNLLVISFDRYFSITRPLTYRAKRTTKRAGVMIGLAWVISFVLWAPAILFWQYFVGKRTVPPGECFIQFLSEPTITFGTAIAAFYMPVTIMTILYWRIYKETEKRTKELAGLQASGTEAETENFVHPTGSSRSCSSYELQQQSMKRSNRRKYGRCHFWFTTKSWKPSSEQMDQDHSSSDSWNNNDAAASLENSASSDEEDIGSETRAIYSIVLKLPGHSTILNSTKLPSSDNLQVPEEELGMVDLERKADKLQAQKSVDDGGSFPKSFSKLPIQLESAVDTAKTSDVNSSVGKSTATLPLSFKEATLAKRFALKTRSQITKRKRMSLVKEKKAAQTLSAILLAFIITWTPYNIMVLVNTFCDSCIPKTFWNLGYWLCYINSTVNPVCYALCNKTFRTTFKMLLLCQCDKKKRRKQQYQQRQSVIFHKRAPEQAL

Row | Structure (SMILES) | activation at 1 µM [1] | inhibition at 1 µM [2] | β2 (% effect at 1 μM) [1] | M3 (% inhibition at 1 μM) ([2]; 1 µM) | M3 (% inhibition at 1 μM) [2]
1 | O=C(c1csc(C2CCCC2)n1)N1CCOC2(CCN(CCOc3ccc(CNC[C@H](O)c4ccc(O)c5[nH]c(=O)sc45)cc3)CC2)C1 [Example 262, (R)-7-(2-(4-(2-(4-(2-cyclopentylthiazole-4-carbonyl)-1-oxa-4,9-diazaspiro[5.5]undecan-9-yl)ethoxy)benzylamino)-1-hydroxyethyl)-4-hydroxy-benzo[d]thiazol-2(3H)-one] | 69% | 82% |  |  | 
2 | CC(C)(C(=O)N1CCOC2(CCN(CCOc3ccc(CNC[C@H](O)c4ccc(O)c5[nH]c(=O)sc45)cc3)CC2)C1)c1ccccc1 [Example 230, (R)-4-hydroxy-7-(1-hydroxy-2-(4-(2-(4-(2-methyl-2-phenylpropanoyl)-1-oxa-4,9-diazaspiro[5.5]undecan-9-yl)ethoxy)benzylamino)ethyl) benzo[d]thiazol-2(3H)-one] | 70% | 31% |  |  | 
3 | Cc1ccnn1CC(=O)N1CCOC2(CCN(CCCCCCCCCNC[C@H](O)c3ccc(O)c4[nH]c(=O)sc34)CC2)C1 [Example 200, (R)-4-hydroxy-7-(1-hydroxy-2-(9-(4-(2-(5-methyl-1H-pyrazol-1-yl)acetyl)-1-oxa-4,9-diazaspiro[5.5]undecan-9-yl)nonylamino)ethyl)benzo[d]thiazol-2(3H)-one] | 92% | 70% |  |  | 
4 | CCOc1ccc(O)c(C(=O)N2CCOC3(CCN(Cc4cc(F)cc(CCNC[C@H](O)c5ccc(O)c6[nH]c(=O)sc56)c4)CC3)C2)c1 [Example 154, (R)-7-(2-(3-((4-(5-ethoxy-2-hydroxybenzoyl)-1-oxa-4,9-diazaspiro[5.5]undecan-9-yl)methyl)-5-fluorophenethylamino)-1-hydroxyethyl)-4-hydroxybenzo[d]thiazol-2(3H)-one] | 102% | 28% |  |  | 
5 | Cn1cccc1C(=O)N1CCOC2(CCN(CCCCCCCCCNC[C@H](O)c3ccc(O)c4[nH]c(=O)sc34)CC2)C1 [Example 184, (R)-4-hydroxy-7-(1-hydroxy-2-(9-(4-(1-methyl-1H-pyrrole-2-carbonyl)-1-oxa-4,9-diazaspiro[5.5]undecan-9-yl)nonylamino)ethyl)benzo[d]thiazol-2(3H)-one] | 89% | 96% |  |  | 
6 | O=C(COc1ccccc1)N1CCOC2(CCN(CCOc3ccc(CNC[C@H](O)c4ccc(O)c5[nH]c(=O)sc45)cc3)CC2)C1 [Example 240, (R)-4-hydroxy-7-(1-hydroxy-2-(4-(2-(4-(2-phenoxyacetyl)-1-oxa-4,9-diazaspiro[5.5]undecan-9-yl)ethoxy)benzylamino)ethyl) benzo[d]thiazol-2(3H)-one] | 92% | 34% |  |  | 
7 | O=C(c1ccc(-c2ccccc2)cc1)N1CCOC2(CCN(Cc3cc(F)cc(CCNC[C@H](O)c4ccc(O)c5[nH]c(=O)sc45)c3)CC2)C1 [Example 171, (R)-7-(2-(3-((4-(biphenylcarbonyl)-1-oxa-4,9-diazaspiro[5.5]undecan-9-yl)methyl)-5-fluorophenethylamino)-1-hydroxyethyl)-4-hydroxybenzo[d]thiazol-2(3H)-one] |  |  | 86% | 11% | 
8 | Cc1ccnn1CC(=O)N1CCOC2(CCN(CCOc3ccc(CNC[C@H](O)c4ccc(O)c5[nH]c(=O)sc45)cc3)CC2)C1 [Example 241, (R)-4-hydroxy-7-(1-hydroxy-2-(4-(2-(4-(2-(5-methyl-1H-pyrazol-1-yl)acetyl)-1-oxa-4,9-diazaspiro[5.5]undecan-9-yl)ethoxy)benzylamino)ethyl) benzo[d]thiazol-2(3H)-one] | 85% | 11% |  |  | 
9 | O=C(c1ccc2ccccc2n1)N1CCOC2(CCN(Cc3cc(F)cc(CCNC[C@H](O)c4ccc(O)c5[nH]c(=O)sc45)c3)CC2)C1 [Example 119, (R)-7-(2-(3-fluoro-5-((4-(quinoline-2-carbonyl)-1-oxa-4,9-diazaspiro[5.5]undecan-9-yl)methyl)phenethylamino)-1-hydroxyethyl)-4-hydroxybenzo[d]thiazol-2(3H)-one] | 100% | 60% |  |  | 
10 | O=C(c1csc(C(F)(F)F)n1)N1CCOC2(CCN(CCOc3ccc(CNC[C@H](O)c4ccc(O)c5[nH]c(=O)sc45)cc3)CC2)C1 [Example 258] |  |  | 55% |  | 96%
11 | O=C(COCCc1ccccc1)N1CCOC2(CCN(Cc3cc(F)cc(CCNC[C@H](O)c4ccc(O)c5[nH]c(=O)sc45)c3)CC2)C1 [Example 174, (R)-7-(2-(3-fluoro-5-((4-(2-phenethoxyacetyl)-1-oxa-4,9-diazaspiro[5.5]undecan-9-yl)methyl)phenethylamino)-1-hydroxyethyl)-4-hydroxybenzo[d]thiazol-2(3H)-one] | 89% | 41% |  |  | 
12 | Cc1ccsc1C(=O)N1CCOC2(CCN(Cc3cc(F)cc(CCNC[C@H](O)c4ccc(O)c5[nH]c(=O)sc45)c3)CC2)C1 [Example 125, (R)-7-(2-(3-fluoro-5-((4-(3-methylthiophene-2-carbonyl)-1-oxa-4,9-diazaspiro[5.5]undecan-9-yl)methyl)phenethylamino)-1-hydroxyethyl)-4-hydroxybenzo[d]thiazol-2(3H)-one] | 97% | 52% |  |  | 
13 | Cc1ccoc1C(=O)N1CCOC2(CCN(Cc3cc(F)cc(CCNC[C@H](O)c4ccc(O)c5[nH]c(=O)sc45)c3)CC2)C1 [Example 127, (R)-7-(2-(3-fluoro-5-((4-(3-methylfuran-2-carbonyl)-1-oxa-4,9-diazaspiro[5.5]undecan-9-yl)methyl)phenethylamino)-1-hydroxyethyl)-4-hydroxybenzo[d]thiazol-2(3H)-one] | 97% | 78% |  |  | 
14 | O=C(CCc1ccccc1)N1CCOC2(CCN(CCOc3ccc(CNC[C@H](O)c4ccc(O)c5[nH]c(=O)sc45)cc3)CC2)C1 [Example 228, (R)-4-hydroxy-7-(1-hydroxy-2-(4-(2-(4-(3-phenylpropanoyl)-1-oxa-4,9-diazaspiro[5.5]undecan-9-yl)ethoxy)benzylamino)ethyl) benzo[d]thiazol-2(3H)-one] | 67% | 22% |  |  | 
15 | O=C(c1cc2ccccc2s1)N1CCOC2(CCN(CCCCCCCCCNC[C@H](O)c3ccc(O)c4[nH]c(=O)sc34)CC2)C1 [Example 194, (R)-7-(2-(9-(4-(benzo[b]thiophene-2-carbonyl)-1-oxa-4,9-diazaspiro[5.5]undecan-9-yl)nonylamino)-1-hydroxyethyl)-4-hydroxybenzo[d]thiazol-2(3H)-one] | 92% | 85% |  |  | 
16 | Cc1ccn(CC(=O)N2CCOC3(CCN(CCOc4ccc(CNC[C@H](O)c5ccc(O)c6[nH]c(=O)sc56)cc4)CC3)C2)n1 [Example 245, (R)-4-hydroxy-7-(1-hydroxy-2-(4-(2-(4-(2-(3-methyl-1H-pyrazol-1-yl)acetyl)-1-oxa-4,9-diazaspiro[5.5]undecan-9-yl)ethoxy)benzylamino)ethyl) benzo[d]thiazol-2(3H)-one] | 76% | 51% |  |  | 
